Test results published in patent US20240342111A1, “ISOMER-SPECIFIC NEUROPROTECTIVE EFFECT OF NATURAL RESERVATROL” (priority 2021, published 2024).

Columns and labels:
[1] = target: T1, TyrRS (Rattus norvegicus, UniProt Q4KM49); test: Immunostaining of neuronal TyrRS, RSV alone or in combination with Aβ; type: cell-based; conditions: 16 hours; for TyrRS protein levels: alone, 50μ; for Aβ-mediated downregulation of TyrRS: co-treatment 50μ with Aβ 50 nM
T1 construct: Primary cortical neuron cultures were obtained from E18 Sprague Dawley rats' cortices; endogenous in cells; host or cells: rat primary cortical neurons (E18 Sprague Dawley)
T1 sequence (Q4KM49 1-528): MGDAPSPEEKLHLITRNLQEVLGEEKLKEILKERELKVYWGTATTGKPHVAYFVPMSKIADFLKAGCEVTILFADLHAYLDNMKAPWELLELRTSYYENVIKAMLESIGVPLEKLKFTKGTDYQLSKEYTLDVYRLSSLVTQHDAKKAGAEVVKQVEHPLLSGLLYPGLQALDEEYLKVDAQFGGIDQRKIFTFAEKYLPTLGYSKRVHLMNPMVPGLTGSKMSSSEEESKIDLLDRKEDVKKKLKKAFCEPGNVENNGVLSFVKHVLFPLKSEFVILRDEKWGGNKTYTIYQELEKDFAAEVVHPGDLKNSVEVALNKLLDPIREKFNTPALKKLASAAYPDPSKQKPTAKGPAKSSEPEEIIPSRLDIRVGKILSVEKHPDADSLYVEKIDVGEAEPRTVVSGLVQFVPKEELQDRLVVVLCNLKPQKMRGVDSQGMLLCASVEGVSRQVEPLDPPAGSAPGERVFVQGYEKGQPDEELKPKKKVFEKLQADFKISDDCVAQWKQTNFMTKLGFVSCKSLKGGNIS

[2] = test system: Ac-K56-H3; conditions: diabetes patients, 500 mg/day; cited from earlier work
[3] = test system: Rat cortical neurons transfected with PARP1 siRNA; test: siRNA knockdown of PARP1, trans-RSV neurotoxicity, MTT assay; type: cell-based; conditions: trans-RSV 50 μM, 72 hours
Procedure: Cell viability was assessed and quantified using MTT assay.
Primary cortical neuron cultures were obtained from E18 Sprague Dawley rats' cortices, which were dissected in Hibernate E (BrainBits) and dissociated using the Neural Tissue Dissociation kit (Miltenyi Biotec). For this, minced cortices were incubated in a pre-warmed enzyme mix at 37° C. for 15 min; tissues were then triturated and strained using a 40 μm cell strainer. After washing and centrifugation, neurons were seeded in 50 μg/ml poly-D-Lysine (Sigma Aldrich) coated tissue culture plates. NBActive-1 medium (BrainBits) supplemented with 100 U/ml of Penicillin-Streptomycin (Life Technologies), 2 mM L-Glutamine (Life Technologies), and 1 X N21 supplement (R&D Systems) was used as culture medium. Control (AM4635), TyrRS (s443), PARP1 (s130207) siRNA for transfection were obtained from Invitrogen. […]
Rat cortical neurons (DIV 10-11) were exposed to different treatments after seeding 20,000 cells/well in 96-well plates. Cell viability was then assessed at 48 hours after the initial exposure to NMDA. […] The percentage of MTT reduced as measured by the difference between the absorbances at 570 nm read in a spectrophotometer (Spectramax 190R Molecular Devices, UK). The percentage of reduction of MTT was calculated comparing the difference of the absorbance at 570 of each sample. […]

[4] = test system: Rat cortical neurons; test: Oxidative stress (H2O2)-induced toxicity, viability; type: cell-based; conditions: 400 μM H2O2 24 hours, pre-treatment 16 hours
[5] = test system: OGG1; test: Immunoblot for OGG1 protein; type: cell-based, rat; conditions: 5-50 μM, 4 hours

**Q.** For Oc1ccc(/C=C/c2cc(O)cc(O)c2)cc1 [trans-RSV, trans-resveratrol], which TyrRS protein levels [1] is on record?
**A.** Its TyrRS protein levels is “downregulation”.

**Q.** And the “Aβ-mediated downregulation of TyrRS” value [1]?
**A.** The value was “exacerbated the downregulation of TyrRS”.

**Q.** And the “levels of Ac-K56-H3 in PBMC” value [2]?
**A.** The value was “decreased levels of Ac-K56-H3”.

**Q.** What about the “effect of PARP1 siRNA knockdown on neurotoxicity” value [3] of the same molecule?
**A.** The value was “protected against trans-RSV-mediated neurotoxicity”.

**Q.** Which results are given for Oc1ccc(/C=C\c2cc(O)cc(O)c2)cc1 [cis-RSV, cis-resveratrol]?
**A.** protection from toxicity induced by oxidative stress [4]: protects neurons from toxicity induced by oxidative stress; TyrRS protein levels [1]: upregulation of the TyrRS protein levels; Aβ-mediated downregulation of TyrRS [1]: protected against Aβ-mediated downregulation of TyrRS; OGG1 protein levels [5]: downregulated both the protein levels of OGG1 and the levels of 8-oxo-dG
